Tests used:
Format in all cases: functional, cell-based
[1] = test system: PSN1; test: Antiproliferative activity against human PSN1 cells after 72 hrs by WST8 assay; details: PSN1, 72 h
[2] = test system: A549; test: Antiproliferative activity against human A549 cells after 72 hrs by WST8 assay; details: A549, 72 h
[3] = Antiproliferative activity against human TIG3 cells after 72 hrs by WST8 assay; details: TIG-3, 72 h
[4] = Antiproliferative activity against human PANC1 cells after 72 hrs by WST8 assay; details: PANC-1, 72 h
[5] = test system: MDA-MB-231; test: Antiproliferative activity against human MDA-MB-231 cells after 72 hrs by WST8 assay; details: MDA-MB-231, 72 h

Structure (SMILES) | IC50 [1] | IC50 [2] | IC50 [3] | IC50 [4] | IC50 [5]
C=C[C@]1(C)C=C2CC[C@H]3C(C)(C)[C@H](O)C[C@H](O)[C@]3(C)[C@H]2CC1 | 12.3 µM |  |  |  | 
O=c1[nH]cc(F)c(=O)[nH]1 [FLUOROURACIL] | 4.4 µM | 2.8 µM | 8.4 µM | 3.7 µM | 5.2 µM
